Read-outs that look alike come from different tables or passages of the source.
What was measured:
human DLK = human DLK (Homo sapiens (Human), UniProt Q12852); experiment: DLK Kd determination (KINOMEscan KdELECT, DiscoveRx); format: binding
Experimental: The DLK dissociation constants (Kd) have been determined in the KINOMEscan KdELECT Service at DiscoveRx.
A fusion protein of full length of human DLK (amino acids 1-859) and the DNA binding domain of NFkB was expressed in transiently transfected HEK293 cells. From these HEK 293 cells, extracts were prepared in M-PER extraction buffer (Pierce) in the presence of Protease Inhibitor Cocktail Complete (Roche) and Phosphatase Inhibitor Cocktail Set II (Merck) per manufacturers' instructions. The DLK fusion protein was labeled with a chimeric double-stranded DNA tag containing the NFkB binding site (5′-[sequence]-3′, SEQ ID NO:1) fused to an amplicon for qPCR readout, which was added directly to the expression extract (the final concentration of DNA-tag in the binding reaction is 0.1 nM).
The liganded beads were blocked with excess biotin and washed with blocking buffer (SeaBlock (Pierce), 1% BSA, 0.05% Tween 20, 1 mM DTT) to remove unbound ligand and to reduce nonspecific binding.
Extracts were used directly in binding assays without any enzyme purification steps at a >10,000-fold overall stock dilution (final DNA-tagged enzyme concentration <0.1 nM). Extracts were loaded with DNA-tag and diluted into the binding reaction in a two step process. First extracts were diluted 1:100 in 1× binding buffer (PBS/0.05% Tween 20/10 mM DTT/0.1% BSA/2 μg/ml sonicated salmon sperm DNA) containing 10 nM DNA-tag. This dilution was allowed to equilibrate at room temperature for 15 minutes and then subsequently diluted 1:100 in 1× binding buffer. Test compounds were prepared as 111× stocks in 100% DMSO. Kds were determined using an 11-point 3-fold compound dilution series with three DMSO control points. […] The compounds were then diluted directly into the assays such that the final concentration of DMSO was 0.9%. All reactions performed in polypropylene 384-well plates. Each was a final volume of 0.02 mL. Assays were incubated with shaking for 1 hour at room temperature. Then the beads were pelleted and washed with wash buffer (1×PBS, 0.05% Tween 20) to remove displaced kinase and test compound. […] The kinase concentration in the eluates was measured by qPCR. qPCR reactions were assembled by adding 2.5 μL of kinase eluate to 7.5 μL of qPCR master mix containing 0.15 μM amplicon primers and 0.15 μM amplicon probe.
Test compounds were prepared as 111× stocks in 100% DMSO. Kds were determined using an 11-point 3-fold compound dilution series with three DMSO control points. […] The compounds were then diluted directly into the assays such that the final concentration of DMSO was 0.9%. The Kds were determined using a compound top concentration of 30,000 nM. Kd measurements were performed in duplicate.
Binding constants (Kds) were calculated with a standard dose-response curve using the Hill equation:
The Hill Slope was set to −1.

[1] = Metabolic stability in liver microsomes, mouse; format: in vitro ADME, CD-1 mouse; conditions: CD-1, liver microsomes, 0.5 mg/mL microsomes, NADPH, 45 minutes, 37° C., read-out: Half-life in liver microsomes (t1/2, minutes)
Experimental: (§1) The test compound was incubated with liver microsomes (0.5 mg/mL) from CD-1 mouse, Sprague Dawley rat, Beagle dog, Cynomolgus monkey, and human in the presence of NADPH for 45 minutes at 37° C. The % parent remaining over time was determined by LC-MS/MS, using peak area ratios. Half-life (t1/2) was calculated using the following equation: t1/2=ln2/k, where k is the rate constant of parent decay over time (slope of the plot of log[% parent remaining] versus time).

[2] = Metabolic stability in liver microsomes, rat; format: in vitro ADME; conditions: Sprague Dawley, 0.5 mg/mL microsomes, NADPH, 45 minutes, 37° C., read-out: Half-life in liver microsomes (t1/2, minutes)
Experimental: as §1

[3] = Metabolic stability in liver microsomes, dog; format: in vitro ADME; conditions: Beagle, 0.5 mg/mL microsomes, NADPH, 45 minutes, 37° C., read-out: Half-life in liver microsomes (t1/2, minutes)
Experimental: as §1

[4] = Metabolic stability in liver microsomes, monkey; format: in vitro ADME, Cynomolgus monkey; conditions: 0.5 mg/mL microsomes, NADPH, 45 minutes, 37° C., read-out: Half-life in liver microsomes (t1/2, minutes)
Experimental: as §1

[5] = Metabolic stability in liver microsomes, human; format: in vitro ADME; conditions: 0.5 mg/mL microsomes, NADPH, 45 minutes, 37° C., read-out: Half-life in liver microsomes (t1/2, minutes)
Experimental: as §1

[6] = Mouse pharmacokinetics, single dose; format: in vivo, male C57BL/6 mice; conditions: for Kp / unbound brain-to-plasma ratio (Kp,uu): brain and plasma, po, 10 mg/kg, based on AUC; for Kp / unbound brain-to-plasma ratio (Kp,uu) / AUC(0-t) / Cmax / bioavailability: oral dose 10 mg/kg; for Kp: read-out: Brain/Plasma Ratio; for unbound brain-to-plasma ratio (Kp,uu): read-out: Free Brain/Plasma Ratio; for clearance / half-life / Vd: in vivo; for Vd: read-out: Vss; for AUC(0-t) / Cmax / bioavailability: plasma; for clearance in mice, comparison in words / half-life in mice, comparison in words: relative to comparator compounds 13 or 14b; for brain penetration, in words: relative to 13 and 14b and to 1a, 4b, 8a and 9b
[7] = Metabolic stability in liver microsome preparations, overall comparison; format: in vitro ADME; conditions: relative to comparator compounds 13 or 14/14b (WO2018207072)
Experimental: as §1

[8] = Rat pharmacokinetics, single dose; format: in vivo, Wistar Han rats; conditions: rat, in vivo, Wistar Han rats
Experimental: Pharmacokinetics for compounds 13, 1a, and 9b were determined using single dosage of Wistar Han rats using techniques that are well known in the art.

[9] = male, C57BL/6, mouse, male C57BL/6 mice
[10] = mouse, male C57BL/6 mice, IV dose 0.3 mg/kg (1a, 4b, 13, 14b, 16; IV dose of 8a, 9b not stated)
[11] = full length human DLK fusion protein, qPCR readout, duplicate, read-out: Kd
[12] = male, C57BL/6, mouse, iv, 1 mg/kg

Chain of human DLK (Q12852 whole entry): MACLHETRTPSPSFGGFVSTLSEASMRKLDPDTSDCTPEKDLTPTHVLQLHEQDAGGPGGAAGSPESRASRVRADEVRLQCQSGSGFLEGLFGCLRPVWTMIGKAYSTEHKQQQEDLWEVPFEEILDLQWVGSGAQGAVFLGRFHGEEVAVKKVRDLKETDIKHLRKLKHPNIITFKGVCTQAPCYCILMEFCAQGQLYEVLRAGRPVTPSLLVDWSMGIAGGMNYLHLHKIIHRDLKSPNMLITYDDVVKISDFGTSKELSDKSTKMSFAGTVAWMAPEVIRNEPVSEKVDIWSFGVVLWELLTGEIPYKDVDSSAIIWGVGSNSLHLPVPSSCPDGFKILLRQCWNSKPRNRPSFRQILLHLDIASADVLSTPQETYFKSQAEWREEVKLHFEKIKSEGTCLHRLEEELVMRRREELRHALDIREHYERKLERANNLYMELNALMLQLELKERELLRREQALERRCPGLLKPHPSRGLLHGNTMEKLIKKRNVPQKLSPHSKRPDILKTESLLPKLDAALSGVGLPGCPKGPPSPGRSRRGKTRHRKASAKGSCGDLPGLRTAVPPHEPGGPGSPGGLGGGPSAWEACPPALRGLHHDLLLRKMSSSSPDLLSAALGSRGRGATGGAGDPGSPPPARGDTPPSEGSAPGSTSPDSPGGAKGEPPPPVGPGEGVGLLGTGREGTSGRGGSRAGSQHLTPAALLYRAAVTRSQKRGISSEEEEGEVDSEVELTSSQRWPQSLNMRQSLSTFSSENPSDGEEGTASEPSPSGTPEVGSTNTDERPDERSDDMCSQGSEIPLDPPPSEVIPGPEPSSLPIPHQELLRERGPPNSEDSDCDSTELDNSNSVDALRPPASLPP

Structure (SMILES) | Kd (human DLK; read-out: Kd) [nM] | half-life [1] [min] | half-life [2] [min] | half-life [5] [min] | Kp [6, 9] | unbound brain-to-plasma ratio (Kp,uu) [6, 9] | clearance [6, 10] [mL/min/kg] | half-life [6, 10] [h] | Vd [6, 10] [L/kg] | AUC(0-t) ([6]; mouse, male C57BL/6 mice) [µM·h] | Cmax ([6]; mouse, male C57BL/6 mice) [µM] | bioavailability ([6]; mouse, male C57BL/6 mice) [%] | also measured
CC(C)[C@H](O)c1nc(-c2cnc(N)c(OC(F)(F)F)c2)cn1C12CC(F)(C1)C2 (single isomer, unassigned) [Example 3b] | 0.24 |  |  |  |  |  |  |  |  |  |  |  | 
CC(C)[C@H](O)c1nc(-c2cnc(N)c(C(F)(F)F)c2)cn1C12CC(F)(C1)C2 (single isomer, unassigned) [Example 4b] | 0.29 | 71 | 30 | 213 | 1.72 | 1.06 | 24.5 | 1.86 | 3.3 | 8.67 | 5.42 | 49.2 | half-life [3]: 355 min; half-life [4]: 22 min; clearance in mice, comparison in words [6]: reduced clearance; half-life in mice, comparison in words [6]: longer half-life; microsomal stability, comparison in words [7]: improvements to microsomal stability
CC(C)[C@@H](O)c1nc(-c2cnc(N)c(C(F)(F)F)c2)cn1C12CC(N3CCC(F)(F)CC3)(C1)C2 (single isomer, unassigned) [Example 7a] | 0.21 |  | 566 | 70 |  |  |  |  |  |  |  |  | 
CC(C)[C@@H](O)c1nc(-c2cnc(N)c(OC(F)(F)F)c2)cn1C12CC(N3CCC(F)(F)CC3)(C1)C2 (single isomer, unassigned) [Example 8a] | 0.5 | 322 | 201 | 297 | 0.82 | 0.38 | 7 | 6.7 | 3.8 | 41.4 | 3.54 | 106 | 
Nc1ncc(-c2cn(C34CC(N5CCC(F)(F)CC5)(C3)C4)c([C@@H](O)C(F)(F)F)n2)cc1C(F)(F)F (single isomer, unassigned) [Example 10a] | 0.62 |  |  |  |  |  |  |  |  |  |  |  | 
Nc1ncc(-c2cn(C34CC(C3)C4)c([C@@H](O)C(F)(F)F)n2)cc1OC(F)(F)F [Compound 13, (R)-1-(4-(6-amino-5-(trifluoromethoxy)-pyridin-3-yl)-1-(bicyclo[1.1.1]pentan-1-yl)-1H-imidazol-2-yl)-2,2,2-trifluoroethan-1-ol, reference compound] |  | 221 | 77 | 121 | 2.97 | 1.54 | 14.1 | 3.53 | 4.6 | 14.4 | 1.95 | 51 | Kd (human DLK; [11]): 1.6 nM; half-life [3]: 109 min; half-life [4]: 56 min; clearance ([8]; IV dose 1 mg/kg): 12.1 mL/min/kg; half-life ([8]; IV dose 1 mg/kg): 9.94 h; Vd ([8]; IV dose 1 mg/kg, read-out: Vss): 7.9 L/kg; AUC(0-t) ([8]; oral dose 3 mg/kg): 7.59 µM·h; Cmax ([8]; oral dose 3 mg/kg): 0.909 µM; bioavailability ([8]; oral dose 3 mg/kg): 86.3%
CC(C)C(O)c1nc(-c2cnc(N)c(C(F)(F)F)c2)cn1C12CC(C1)C2 (stereo not shown) [Compound 14, 1-(4-(6-amino-5-(trifluoromethyl)pyridin-3-yl)-1-(bicyclo[1.1.1]pentan-1-yl)-1H-imidazol-2-yl)-2-methylpropan-1-ol, reference compound] |  |  | 27 | 41 |  |  |  |  |  |  |  |  | Kd (human DLK; [11]): 0.3 nM
CC(C)[C@H](O)c1nc(-c2cnc(N)c(C(F)(F)F)c2)cn1C12CC(C1)C2 [Compound 14b, (S)-1-(4-(6-amino-5-(trifluoromethyl)pyridin-3-yl)-1-(bicyclo[1.1.1]pentan-1-yl)-1H-imidazol-2-yl)-2-methylpropan-1-ol, reference compound] |  | 16 | 23 | 26 |  |  | 76.7 | 0.7 | 3.72 | 3.62 | 3.38 | 61.2 | Kd (human DLK; [11]): 0.12 nM; half-life [3]: 154 min; half-life [4]: 7 min
CC(C)[C@H](O)c1nc(-c2cnc(N)c(OC(F)(F)F)c2)cn1C12CC(N3CCOCC3)(C1)C2 [Compound 15, (S)-1-(4-(6-amino-5-(trifluoromethoxy)pyridin-3-yl)-1-(3-morpholinobicyclo[1.1.1]pentan-1-yl)-1H-imidazol-2-yl)-2-methylpropan-1-ol, reference compound] |  | 1840 | 3000 | 80 | 0.24 | 0.16 |  |  |  |  |  |  | clearance [6, 12]: 12 mL/min/kg; half-life [6, 12]: 5.4 h; Vd [6, 12]: 4.1 L/kg; brain penetration, in words ([6]; mouse): reduced brain penetration; clearance in mice, comparison in words [6]: reduced clearances; half-life in mice, comparison in words [6]: longer half-lives; microsomal stability, comparison in words [7]: improved microsomal stability
Nc1ncc(-c2cn(C34CC(N5CCOCC5)(C3)C4)c([C@@H](O)C(F)(F)F)n2)cc1OC(F)(F)F [Compound 16, (R)-1-(4-(6-amino-5-(trifluoromethoxy)pyridin-3-yl)-1-(3-morpholinobicyclo[1.1.1]pentan-1-yl)-1H-imidazol-2-yl)-2,2,2-trifluoroethan-1-ol, reference compound] |  | 1040 | 1500 | 260 | 0.21 | 0.16 | 4.4 | 5.2 | 1.8 | 70.3 | 11.9 | 92.1 | Kd (human DLK; [11]): 0.36 nM; brain penetration, in words ([6]; mouse): reduced brain penetration; clearance in mice, comparison in words [6]: reduced clearances; half-life in mice, comparison in words [6]: longer half-lives; microsomal stability, comparison in words [7]: improved microsomal stability
Nc1ncc(-c2cn(C34CC(F)(C3)C4)c([C@H](O)C(F)(F)F)n2)cc1OC(F)(F)F [Example 1b, (S)-1-(4-(6-amino-5-(trifluoromethoxy)pyridin-3-yl)-1-(3-fluorobicyclo[1.1.1]pentan-1-yl)-1H-imidazol-2-yl)-2,2,2-trifluoroethanol] |  |  |  |  |  |  |  |  |  |  |  |  | Kd (human DLK): 120 nM
Nc1ncc(-c2cn(C34CC(F)(C3)C4)c([C@@H](O)C(F)(F)F)n2)cc1C(F)(F)F [Example 2a, (R)-1-(4-(6-amino-5-(trifluoromethyl)pyridin-3-yl)-1-(3-fluorobicyclo[1.1.1]pentan-1-yl)-1H-imidazol-2-yl)-2,2,2-trifluoroethanol] | 4.4 |  |  |  |  |  |  |  |  |  |  |  | 
Nc1ncc(-c2cn(C34CC(F)(C3)C4)c(C(O)C3CC3)n2)cc1OC(F)(F)F (stereo not shown) [Example 5, (4-(6-amino-5-(trifluoromethoxy)pyridin-3-yl)-1-(3-fluorobicyclo[1.1.1]pentan-1-yl)-1H-imidazol-2-yl)(cyclopropyl)methanol] | 5.2 |  |  |  |  |  |  |  |  |  |  |  | 
Nc1ncc(-c2cn(C34CC(F)(C3)C4)c(C(O)C3CC3)n2)cc1C(F)(F)F (stereo not shown) [Example 6, (4-(6-amino-5-(trifluoromethyl)pyridin-3-yl)-1-(3-fluorobicyclo[1.1.1]pentan-1-yl)-1H-imidazol-2-yl)(cyclopropyl)methanol] | 7.7 |  |  |  |  |  |  |  |  |  |  |  | 
Nc1ncc(-c2cn(C34CC(N5CCC(F)(F)CC5)(C3)C4)c(C(O)C3CC3)n2)cc1OC(F)(F)F (stereo not shown) [Example 11, (4-(6-amino-5-(trifluoromethoxy)pyridin-3-yl)-1-(3-(4,4-difluoropiperidin-1-yl)bicyclo[1.1.1]pentan-1-yl)-1H-imidazol-2-yl)(cyclopropyl)methanol] | 3.1 |  |  |  |  |  |  |  |  |  |  |  | 
Nc1ncc(-c2cn(C34CC(N5CCC(F)(F)CC5)(C3)C4)c(C(O)C3CC3)n2)cc1C(F)(F)F (stereo not shown) [Example 12, (4-(6-amino-5-(trifluoromethyl)pyridin-3-yl)-1-(3-(4,4-difluoropiperidin-1-yl)bicyclo[1.1.1]pentan-1-yl)-1H-imidazol-2-yl)(cyclopropyl)methanol] | 2.9 |  |  |  |  |  |  |  |  |  |  |  | 

Source: patent US11560366B2, “Bicyclo[1.1.1]pentane inhibitors of dual leucine zipper (DLK) kinase for the treatment of disease” (Board of Regents, The University of Texas System, priority 2019, dated 2023)
